According to patent US7498292B2, “Combinatorial libraries of autoinducer analogs, autoinducer agonists and antagonists, and methods of use thereof” (The Research Foundation of State University of New York, priority 2002, dated 2009):
Entries after “also recorded” stand apart in the source; their conditions may differ.

What was measured:
LasR [1] = target: T1, LasR (Pseudomonas aeruginosa, UniProt P25084); experiment: lasI-gfp reporter antagonist (competition against AI1) assay, PAO-JP2 (plasI-LVAgfp); format: cell-based, P. aeruginosa; settings: 100-fold excess concentration over AI1 (1 μM AI1)
T1 construct: endogenous in cells; host or cells: P. aeruginosa PAO-JP2 (lasI, rhlI) harboring plasI-LVAgfp
Description: (§1) P. aeruginosa strain PAO-JP2 (lasI, rhlI) (Rahme et al., Science 268:1899-1902 (1995), which is hereby incorporated by reference in its entirety) harboring plasI-LVAgfp (Pearson et al., Proc. Natl Acad. Sci. USA 91:197-201 (1994), which is hereby incorporated by reference in its entirety) was grown at 37° C. in LB with 300 μg/ml carbenicillin. For agonist assays, an overnight culture was diluted to an OD600 of 0.1 and transferred to wells of a 96-well plate on which test compounds had previously been added and dried. The final concentration of each analog tested was roughly 400 μM, although this is an overestimate due to purity issues. Cells were then incubated for 6 hours at 37° C. with vigorous shaking. GFP expression was detected with a Molecular Imager (BioRad) (488 nm excitation and 695 nm bandpass filter) and quantified with ImageQuant software. The OD600 of cultures was determined to normalize GFP expression to cell density.
The methods were the same as described in Example 2 (GFP Reporter Assay), except that 1 μM AI1 was added to each well in combination with the library compound. The fluorescence/OD600 of each compound competing against AI1 was reported relative to the fluorescence/OD600 of the positive control of AI1 alone, which was set to 1. When strain PAO-JP2 (prhlI-LVAgfp) was used, the positive control was 1 μM AI1 and 10 μM AI2. Eight compounds that inhibited reporter gene expression by greater than 50% were identified (see, e.g., FIG. 6).
(§2) Reporter strains were grown overnight in LB plus 300 μg/ml carbenicillin at 37° C. and diluted to an OD600 of 0.1. Following an incubation of 1 hour, 200 μl of cell culture was added to individual wells of a 96 well plate containing appropriate amount of test compound(s). Plates were incubated for 6 hours and then scanned for fluorescence emission with a Molecular Imager (488 nm excitation and 695 nm bandpass filter). Fluorescence was quantified with ImageQuant software.

LasR [2] = target: T1, LasR; experiment: lasI-gfp reporter agonist assay, PAO-JP2 (plasI-LVAgfp); format: cell-based, P. aeruginosa; settings: PAO-JP2 (plasI-LVAgfp), compounds made in solution phase, increasing concentrations (1, 100, 400 μM)
Text: Since this strain lacks the ability to produce natural AIs due to disruption of both AI synthase genes, activation of LasR relies on the addition of exogenous AI1. Expression of gfp (encoding green fluorescent protein) is under control of the LasR-AI1 inducible lasI promoter, allowing rapid screening for LasR agonists by measuring the level of GFP expression in their presence.
as §1, §2

lac promoter = experiment: GFP expression from lac promoter, PAO-JP2 (pTdK-GFP) (specificity control); format: cell-based, P. aeruginosa; settings: lasI promoter replaced with a lac promoter
pyocyanin = pyocyanin assay, strain PAO-JP2; format: cell-based, P. aeruginosa PAO-JP2; settings: PAO-JP2, 25 μM each of AI1 and AI2, 18 hours
Description: For the pyocyanin assay, cells were grown overnight in LB then washed in fresh media and diluted to an OD600 of 0.05. This culture was grown for 3-4 hours to mid-log phase (OD600 of 0.3-0.5), then diluted to an OD600 of 0.05, and aliquoted to test tubes containing an appropriate amount of test compound(s). Following 18 hours of growth, pyocyanin was extracted from filtered culture supernatants and quantified using standard methods (Essar et al., J. Bacteriol. 172:884-900 (1990), which is hereby incorporated by reference in its entirety).

T1 sequence (P25084 whole entry): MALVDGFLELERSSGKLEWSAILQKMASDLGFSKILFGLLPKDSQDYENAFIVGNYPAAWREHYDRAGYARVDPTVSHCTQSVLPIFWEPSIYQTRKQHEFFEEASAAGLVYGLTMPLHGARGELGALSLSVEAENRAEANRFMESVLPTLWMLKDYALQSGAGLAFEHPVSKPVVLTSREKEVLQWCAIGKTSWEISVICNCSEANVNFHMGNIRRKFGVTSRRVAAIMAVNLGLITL

Compound: CCCCCCCCCC(=O)CC(=O)NC1CCCCC1=O (racemic) [Compound 3, N-(2-oxocyclohexyl)-3-oxododecanamide]
- inhibition of GFP expression (lasI-gfp) (LasR [1]): 35%
- agonist activity (induction of lasI-gfp reporter) (LasR [2]): nearly unable to induce the reporter; also recorded: no agonist activity
- inhibition of GFP expression from lac promoter (lac promoter): inability to inhibit GFP expression
- effect on pyocyanin production (pyocyanin): nearly complete inhibition
